Source: ChEMBL document CHEMBL1201862, “PubChem BioAssay data set” (2004)
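Method: 48-hour compound exposure of cells in 96-well plates, five concentrations, linear interpolation of endpoints. Abbreviation: GI50, concentration required for 50% inhibition of growth.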 Active and inactive are the calls of the source. Rule as the data show it: active = GI50 up to about 1.1 µM and inactive = higher.

Columns and labels:
Test in all cases: NCI anticancer screen, dose series, 48 h
CAKI-1 = system: CAKI-1
U-251 = system: U-251
HCT-116 = system: HCT-116
TK-10 = system: TK-10
NCI-H226 = system: NCI-H226
BT-549 = system: BT-549
ACHN = system: ACHN
SF-295 = system: SF-295
OVCAR-8 = system: OVCAR-8
K562 = system: K562
NCI-H522 = system: NCI-H522
HT-29 = system: HT-29
IGROV-1 = system: IGROV-1
SK-MEL-2 = system: SK-MEL-2
MOLT-4 = system: MOLT-4
Hs-578T = system: Hs-578T
UACC-257 = system: UACC-257
OVCAR-5 = system: OVCAR-5
Malme-3M = system: Malme-3M

Row | Structure (SMILES) | GI50 (CAKI-1) | GI50 (U-251) | GI50 (HCT-116) | GI50 (TK-10) | GI50 (NCI-H226) | GI50 (BT-549) | GI50 (ACHN) | GI50 (SF-295) | GI50 (OVCAR-8) | GI50 (K562) | GI50 (NCI-H522) | GI50 (HT-29) | GI50 (IGROV-1) | GI50 (SK-MEL-2) | GI50 (MOLT-4) | GI50 (Hs-578T) | GI50 (UACC-257) | GI50 (OVCAR-5) | GI50 (Malme-3M)
1 | CC[C@]12C=CCN3CC[C@@]4(c5cc(N=O)c(OC)cc5N(C)[C@H]4[C@@](O)(C(=O)OC)[C@@H]1OC(C)=O)[C@@H]32 | 41 µM (inactive) | 16.7 µM (inactive) | 50.7 µM (inactive) | > 100 µM (inactive) | > 100 µM (inactive) | > 100 µM (inactive) | 61.7 µM (inactive) | 99.5 µM (inactive) | > 100 µM (inactive) | 46.7 µM (inactive) | 18.5 µM (inactive) | 48.5 µM (inactive) | > 100 µM (inactive) | 18 µM (inactive) | 35.6 µM (inactive) | 73.5 µM (inactive) | > 100 µM (inactive) | > 100 µM (inactive) | 71.3 µM (inactive)
2 | CC(C)C(OC(=O)c1ccc(NCc2cc(O)ccc2O)cc1)C(C)C | 0.218 µM (active) | 1.14 µM (inactive) | 2.76 µM (inactive) | 1.66 µM (inactive) | 1.29 µM (inactive) | 0.547 µM (active) | 1.02 µM (active) | 3.74 µM (inactive) | 1.4 µM (inactive) | 1.29 µM (inactive) | 0.16 µM (active) | 3.34 µM (inactive) | 0.855 µM (active) | 2.35 µM (inactive) | 0.243 µM (active) | 1.02 µM (active) | 1.39 µM (inactive) | 2.09 µM (inactive) | 1.77 µM (inactive)
3 | COc1c(O)c(O)c2c(c1O)C(=O)c1cc(C)cc(O)c1C2=O | 37.9 µM (inactive) | 50.4 µM (inactive) | 32.8 µM (inactive) | 49.3 µM (inactive) | 20 µM (inactive) | 40.4 µM (inactive) | 40.3 µM (inactive) | 21.9 µM (inactive) | 20.1 µM (inactive) | 37.4 µM (inactive) | 6.07 µM (inactive) | 24.4 µM (inactive) | 13.2 µM (inactive) | > 100 µM (inactive) | 15.4 µM (inactive) | 19.6 µM (inactive) | 48.3 µM (inactive) | 43 µM (inactive) | 8.91 µM (inactive)
4 | C#C[C@]1(O)CC[C@H]2[C@@H]3CCC4=C/C(=N\OCCN5CCCC5)CC[C@]4(C)[C@H]3CC[C@@]21C | 12.4 µM (inactive) | 17.3 µM (inactive) | 8.36 µM (inactive) | 17.1 µM (inactive) | 20.6 µM (inactive) | 16.3 µM (inactive) | 17 µM (inactive) | 3.72 µM (inactive) | 17.1 µM (inactive) | 5.12 µM (inactive) | 3.57 µM (inactive) | 12.7 µM (inactive) | 4.79 µM (inactive) | 9.18 µM (inactive) | 6.14 µM (inactive) | 6.25 µM (inactive) | 8.13 µM (inactive) | 19.2 µM (inactive) | 10.8 µM (inactive)
5 | Cc1cccc(/N=N/c2ccc(/N=N/c3c(O)ccc4ccccc34)cc2C)c1 | 40.2 µM (inactive) | 54.2 µM (inactive) | > 100 µM (inactive) | > 100 µM (inactive) | > 100 µM (inactive) | > 100 µM (inactive) | 49.3 µM (inactive) | 44.2 µM (inactive) | 7.05 µM (inactive) | > 100 µM (inactive) | 14.2 µM (inactive) | > 100 µM (inactive) | > 100 µM (inactive) | > 100 µM (inactive) | > 100 µM (inactive) | 33.9 µM (inactive) | > 100 µM (inactive) | > 100 µM (inactive) | 2 µM (inactive)
6 | O=C(O)CCC1NC(/C(=C/c2ccccc2O)NC(=O)c2ccccc2)OC1=O (stereo unspecified) | > 100 µM (inactive) | 37.2 µM (inactive) | 67.3 µM (inactive) | 56.1 µM (inactive) | 72.3 µM (inactive) | 72.6 µM (inactive) | 33 µM (inactive) | 35.4 µM (inactive) | 46.8 µM (inactive) | > 100 µM (inactive) | 64.1 µM (inactive) | > 100 µM (inactive) | 30.5 µM (inactive) | > 100 µM (inactive) | > 100 µM (inactive) | 43.8 µM (inactive) | 27.5 µM (inactive) | > 100 µM (inactive) | > 100 µM (inactive)
7 | CCN(CC)c1c(N(CC)CC)c(=O)c1=O | 4.27 µM (inactive) | 22.9 µM (inactive) | 8.07 µM (inactive) | 2.82 µM (inactive) | 17.2 µM (inactive) | 19.1 µM (inactive) | 3.18 µM (inactive) | > 88.9 µM (inactive) | 10.3 µM (inactive) | 6.12 µM (inactive) | 2.14 µM (inactive) | 2.42 µM (inactive) | 2.81 µM (inactive) | 22.5 µM (inactive) | 3.1 µM (inactive) | 21.7 µM (inactive) | 9.48 µM (inactive) | 18 µM (inactive) | 3.25 µM (inactive)
8 | CC1(C)C=C(S(=O)(=O)c2ccccc2)Oc2ccccc2O1 | 69.2 µM (inactive) | 45.4 µM (inactive) | 29.5 µM (inactive) | 6.7 µM (inactive) | 46.6 µM (inactive) | 42.7 µM (inactive) | 34.8 µM (inactive) | 33 µM (inactive) | 32.1 µM (inactive) | 29.8 µM (inactive) | 40.9 µM (inactive) | 39.6 µM (inactive) | 44.2 µM (inactive) | 52.4 µM (inactive) | 25.2 µM (inactive) | 64.9 µM (inactive) | 38 µM (inactive) | > 100 µM (inactive) | 26.2 µM (inactive)
9 | CN(C)CC1CCCc2ccccc2C1=O (stereo unspecified) | 1.93 µM (inactive) | 1.6 µM (inactive) | 1.85 µM (inactive) | 3.83 µM (inactive) | 21.8 µM (inactive) | 5.06 µM (inactive) | 1.75 µM (inactive) | 17.3 µM (inactive) | 2.13 µM (inactive) | 0.323 µM (active) | 0.16 µM (active) | 1.82 µM (inactive) | 2.06 µM (inactive) | 2.02 µM (inactive) | 0.269 µM (active) | 3.93 µM (inactive) | 6.1 µM (inactive) | 17.5 µM (inactive) | 1.77 µM (inactive)
10 | CS(=O)(=O)OC1CCN(C2(c3cccc(O)c3)CCCCC2)CC1 | > 100 µM (inactive) | 64.7 µM (inactive) | 31.8 µM (inactive) | > 100 µM (inactive) | > 100 µM (inactive) | 46.2 µM (inactive) | > 100 µM (inactive) | 36 µM (inactive) | 57.7 µM (inactive) | 39.6 µM (inactive) | > 100 µM (inactive) | 36.1 µM (inactive) | 28.7 µM (inactive) | > 100 µM (inactive) | 27.8 µM (inactive) | > 100 µM (inactive) | 38.4 µM (inactive) | > 100 µM (inactive) | > 100 µM (inactive)
11 | Nc1cc(CO)cc(Nc2c3ccccc3nc3ccccc23)c1 | 17.5 µM (inactive) | 15.1 µM (inactive) | 15.1 µM (inactive) | 16 µM (inactive) | 18.2 µM (inactive) | 14.5 µM (inactive) | 17.2 µM (inactive) | 10.9 µM (inactive) | 15.9 µM (inactive) | 14.2 µM (inactive) | 6.59 µM (inactive) | 14.7 µM (inactive) | 16.9 µM (inactive) | 14.1 µM (inactive) | 4.5 µM (inactive) | 18.3 µM (inactive) | 15.1 µM (inactive) | 16.7 µM (inactive) | 16.5 µM (inactive)
12 | COc1ccc([C@H]2C=C(c3cc(F)c(Cl)cc3Cl)N=c3s/c(=C\c4ccc(-c5ccc(Cl)cc5Cl)o4)c(=O)n32)cc1 | 80.5 µM (inactive) | 34.8 µM (inactive) | 35.1 µM (inactive) | 12.1 µM (inactive) | 24.6 µM (inactive) | 47.2 µM (inactive) | > 100 µM (inactive) | 43.2 µM (inactive) | 37.8 µM (inactive) | 38.8 µM (inactive) | 52.2 µM (inactive) | 37.2 µM (inactive) | 30.3 µM (inactive) | 20.1 µM (inactive) | 31.9 µM (inactive) | 34.8 µM (inactive) | 30 µM (inactive) | 39.4 µM (inactive) | 99.1 µM (inactive)
13 | C=C1C(NC)CCC23CC24CCC2(C)C(C(C)=O)C(O)CC2(C)C4CCC13 (stereo unspecified) | > 100 µM (inactive) | > 100 µM (inactive) | 70.3 µM (inactive) | > 100 µM (inactive) | > 100 µM (inactive) | 64.3 µM (inactive) | > 100 µM (inactive) | 28.4 µM (inactive) | > 100 µM (inactive) | 71.3 µM (inactive) | 84.9 µM (inactive) | 21.9 µM (inactive) | > 100 µM (inactive) | > 100 µM (inactive) | > 100 µM (inactive) | > 100 µM (inactive) | > 100 µM (inactive) | > 100 µM (inactive) | > 100 µM (inactive)
14 | COc1cc2c3cc1Oc1c(OC)c(OC)cc4c1C(=NCC4)Cc1ccc(cc1)Oc1cc(ccc1O)C[C@H]3N(C)CC2 | 20.6 µM (inactive) | 17.4 µM (inactive) | 12 µM (inactive) | 20.6 µM (inactive) | 22.6 µM (inactive) | 12.5 µM (inactive) | 23.1 µM (inactive) | 19.4 µM (inactive) | 16 µM (inactive) | 12.7 µM (inactive) | 10.7 µM (inactive) | 10.8 µM (inactive) | 25.4 µM (inactive) | 16.7 µM (inactive) | 11.9 µM (inactive) | 17.6 µM (inactive) | 16 µM (inactive) | 45.6 µM (inactive) | 0.601 µM (active)
